In patent publication US12728124B2, “Medical use of cystic fibrosis transmembrane conductance regulator (CFTR) modulators” (priority 2020, dated 2026):

Experiments:
[1] = test system: human pulmonary microvascular endothelial cells (HPMECs); assay type: cell-based; conditions: pretreated 24 hours with 10 μmol/L Ivacaftor or 5 μmol/L Lumacaftor, then 0.25 μg/ml pneumolysin; vs pneumolysin alone
[2] = test system: human pulmonary microvascular endothelial cells (HPMECs); assay: Endothelial calcium concentration (fura-2 340/380 ratio) in HPMECs stimulated with pneumolysin; assay type: cell-based; conditions: 10 μmol/L Ivacaftor for 30 min, then PLY 0.25 μg/ml for 30 min
Protocol: Permeability of endothelial cells has been additionally assessed by measuring the endothelial calcium concentration as follows: Increases in the endothelial calcium concentration represent a key mechanism that underlies the increase endothelial cell permeability. Increased endothelial calcium leads to contraction of the cells and increase gap formation between endothelial cells that lead to increased permeability. In this measurement, HPMECs were cultured in channel slides to confluence. The confluent cells were incubated for 30 min with Hanks Balanced Salt Solution containing 5% fetal bovine serum (FBS) and 10 μmol/L of the calcium sensitive dye fura-2-acetoxymethyl ester (fura-2AM) dissolved in Pluronic F-127 (20% solution in DMSO). The cells were then mounted in a heated chamber at 37° C. and perfused with Hank's salt solution containing 5% FBS with 10 μmol/L Ivacaftor (Cayman chemical) for 30 min followed by PLY (0.25 μg/ml) stimulation for 30 min. Fura-2 fluorescence was excited by monochromatic illumination at wavelength 340 and 380 nm. After background correction, the 340/380 ratio was calculated using TillVision 4.0 software (Till Photonics Germany) as a measure of endothelial calcium concentration. As positive or negative controls, cells were stimulated with only pneumolysin or non-treated cells were used, respectively.

CFTR [3] = biological target: T1, CFTR (Homo sapiens, UniProt P13569); assay: CFTR expression by Western blotting in HPMECs stimulated with pneumolysin; assay type: cell-based; conditions: pretreated 10 μmol/L Ivacaftor 24 hours, then 0.25 μg/ml PLY for 18 h; Western blot
T1 sequence (P13569 whole entry, looked up): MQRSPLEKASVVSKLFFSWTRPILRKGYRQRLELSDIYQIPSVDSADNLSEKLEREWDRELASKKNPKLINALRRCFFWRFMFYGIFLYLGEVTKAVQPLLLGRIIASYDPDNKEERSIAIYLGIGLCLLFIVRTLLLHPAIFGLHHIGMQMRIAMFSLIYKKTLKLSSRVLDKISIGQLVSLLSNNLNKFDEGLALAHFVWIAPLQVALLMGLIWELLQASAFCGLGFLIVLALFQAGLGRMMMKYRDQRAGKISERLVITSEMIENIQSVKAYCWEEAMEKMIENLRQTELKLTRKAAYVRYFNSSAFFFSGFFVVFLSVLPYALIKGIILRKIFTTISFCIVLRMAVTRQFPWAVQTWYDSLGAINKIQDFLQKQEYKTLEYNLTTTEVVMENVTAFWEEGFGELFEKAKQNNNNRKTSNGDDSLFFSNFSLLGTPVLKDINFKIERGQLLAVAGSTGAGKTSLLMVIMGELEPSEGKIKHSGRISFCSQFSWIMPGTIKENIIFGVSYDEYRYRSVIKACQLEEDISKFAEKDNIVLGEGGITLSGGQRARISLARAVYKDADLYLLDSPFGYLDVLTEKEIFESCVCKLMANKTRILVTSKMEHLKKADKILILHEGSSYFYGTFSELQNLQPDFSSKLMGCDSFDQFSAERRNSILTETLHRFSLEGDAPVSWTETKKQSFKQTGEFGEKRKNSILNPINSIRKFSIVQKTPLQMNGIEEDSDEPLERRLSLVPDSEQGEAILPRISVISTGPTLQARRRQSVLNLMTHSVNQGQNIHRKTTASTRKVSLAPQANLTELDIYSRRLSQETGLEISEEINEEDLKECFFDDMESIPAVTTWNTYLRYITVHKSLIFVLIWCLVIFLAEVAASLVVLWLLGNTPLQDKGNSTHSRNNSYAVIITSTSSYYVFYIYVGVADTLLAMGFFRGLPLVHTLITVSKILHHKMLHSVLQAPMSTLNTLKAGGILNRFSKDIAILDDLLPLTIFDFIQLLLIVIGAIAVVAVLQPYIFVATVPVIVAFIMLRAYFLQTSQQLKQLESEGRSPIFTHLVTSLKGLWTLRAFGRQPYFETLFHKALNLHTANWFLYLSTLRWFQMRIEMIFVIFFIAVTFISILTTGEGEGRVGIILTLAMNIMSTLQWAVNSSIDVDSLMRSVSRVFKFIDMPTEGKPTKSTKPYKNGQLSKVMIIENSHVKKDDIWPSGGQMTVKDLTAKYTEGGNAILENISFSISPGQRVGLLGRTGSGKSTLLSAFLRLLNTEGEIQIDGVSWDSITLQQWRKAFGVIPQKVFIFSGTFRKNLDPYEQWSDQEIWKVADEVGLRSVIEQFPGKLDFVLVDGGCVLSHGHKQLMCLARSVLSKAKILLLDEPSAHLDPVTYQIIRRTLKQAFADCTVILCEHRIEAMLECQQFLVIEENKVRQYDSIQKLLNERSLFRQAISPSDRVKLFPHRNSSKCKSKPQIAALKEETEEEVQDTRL
Protocol: CFTR expression in endothelial cells was assessed by Western blotting. HPMECs were grown in 6 well plates to confluence. The confluent cells were pretreated with 10 μmol/L Ivacaftor (Cayman chemical) for 24 hours and the next day were stimulated with 0.25 μg/ml PLY for 18 h. Cells were lysed in RIPA buffer and protein concentration was measured by BCA assay and samples were stored at −80° C. or immediately analysed by western blot. Western blots were performed using 7.5% gel. After gel transfer, the blot membrane was incubated for 1 h in 5% milk diluted in tris buffer saline with tween 0.1% (TBS-T) followed by incubation for 24 h with CFTR antibody as the primary antibody diluted 1:500 in TBS-T. The next day, the membrane was incubated for 2 h in donkey anti rabbit as the secondary antibody diluted 1:10000 in TBS-T.

[4] = test system: S. pneumoniae infected mice; assay: S. pneumoniae infected mice, Ivacaftor pre-treatment: lung protein leakage, survival, BALF immune cells; assay type: in vivo, mouse
CFTR [5] = biological target: T2, CFTR (Mus musculus, UniProt P26361); assay: CFTR expression by Western blotting in lungs of S. pneumoniae infected mice; assay type: in vivo; conditions: Ivacaftor 2 mg/kg i.p. pre-treatment; Western blot
T2 construct: Ivacaftor pre-treatment stabilized the expression of CFTR in lungs of mice infected with S. pneumoniae; from tissue; host or cells: mouse lung tissue (mice from Charles River, Germany)
T2 sequence (P26361 whole entry): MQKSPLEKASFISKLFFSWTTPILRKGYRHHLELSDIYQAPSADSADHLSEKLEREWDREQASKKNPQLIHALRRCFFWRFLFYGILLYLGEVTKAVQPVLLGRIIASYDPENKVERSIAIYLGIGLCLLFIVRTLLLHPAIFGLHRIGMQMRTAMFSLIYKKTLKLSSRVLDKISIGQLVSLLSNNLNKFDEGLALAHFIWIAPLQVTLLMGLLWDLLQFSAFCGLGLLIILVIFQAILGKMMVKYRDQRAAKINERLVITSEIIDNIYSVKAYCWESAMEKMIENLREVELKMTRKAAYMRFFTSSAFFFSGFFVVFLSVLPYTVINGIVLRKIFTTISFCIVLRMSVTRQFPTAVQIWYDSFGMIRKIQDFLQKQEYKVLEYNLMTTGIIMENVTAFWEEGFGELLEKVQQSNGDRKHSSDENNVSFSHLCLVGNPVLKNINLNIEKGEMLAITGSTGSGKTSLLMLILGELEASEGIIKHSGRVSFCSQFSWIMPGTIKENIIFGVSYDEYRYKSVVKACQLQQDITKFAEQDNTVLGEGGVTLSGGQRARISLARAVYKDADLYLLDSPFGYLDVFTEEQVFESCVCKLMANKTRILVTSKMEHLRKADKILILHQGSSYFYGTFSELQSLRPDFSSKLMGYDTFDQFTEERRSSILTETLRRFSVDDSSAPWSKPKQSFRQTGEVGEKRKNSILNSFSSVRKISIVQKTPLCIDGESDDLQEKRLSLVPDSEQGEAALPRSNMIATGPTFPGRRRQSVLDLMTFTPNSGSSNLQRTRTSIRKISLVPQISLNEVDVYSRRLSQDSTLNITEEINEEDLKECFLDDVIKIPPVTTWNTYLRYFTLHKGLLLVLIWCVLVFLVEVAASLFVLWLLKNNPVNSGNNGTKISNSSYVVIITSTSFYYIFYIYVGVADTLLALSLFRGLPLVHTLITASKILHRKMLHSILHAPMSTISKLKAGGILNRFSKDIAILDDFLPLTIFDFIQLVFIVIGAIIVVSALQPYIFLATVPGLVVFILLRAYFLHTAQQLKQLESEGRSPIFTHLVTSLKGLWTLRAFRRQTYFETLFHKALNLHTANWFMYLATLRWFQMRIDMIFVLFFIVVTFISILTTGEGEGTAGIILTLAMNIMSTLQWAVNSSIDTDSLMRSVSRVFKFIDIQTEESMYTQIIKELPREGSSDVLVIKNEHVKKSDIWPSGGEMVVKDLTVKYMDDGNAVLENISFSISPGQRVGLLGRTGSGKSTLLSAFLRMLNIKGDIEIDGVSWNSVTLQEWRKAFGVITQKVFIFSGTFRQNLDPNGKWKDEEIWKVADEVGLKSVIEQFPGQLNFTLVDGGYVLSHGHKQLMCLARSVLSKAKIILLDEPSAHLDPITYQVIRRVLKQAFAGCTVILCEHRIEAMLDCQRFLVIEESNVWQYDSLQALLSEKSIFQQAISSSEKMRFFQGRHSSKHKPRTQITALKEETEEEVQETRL

[6] = test system: S. pneumoniae infected mice; assay: S. pneumoniae infected mice, Ivacaftor post-treatment: lung protein leakage; assay type: in vivo, mouse; conditions: Ivacaftor 2 mg/kg i.p. post-treatment from 6 hours post-infection
[7] = test system: human pulmonary microvascular endothelial cells (HPMECs); assay: Transendothelial electrical resistance (ECIS) of HPMECs stimulated with plasma from patients with severe COVID-19; assay type: cell-based; conditions: pretreated 24 hours with 10 μmol/L Ivacaftor or 5 μmol/L Lumacaftor, then 10% (v/v) severe COVID-19 plasma for 24 h
CFTR [8] = biological target: T1, CFTR; assay: CFTR expression by Western blotting in HPMECs stimulated with plasma from patients with severe COVID-19; assay type: cell-based; conditions: pretreated 10 μmol/L Ivacaftor 24 hours, then 20% (v/v) severe COVID-19 plasma for 24 h; Western blot, densitometry
Protocol: CFTR expression in endothelial cells was assessed by Western blotting. HPMECs were grown in 6 well plates to confluence. The confluent cells were pretreated with 10 μmol/L Ivacaftor (Cayman chemical) for 24 hours and the next day were stimulated with the above described plasma from COVID-19 patients or healthy donors for 24 h. As positive control, cells were stimulated with the plasma from COVID-19 patients alone (in the absence of CFTR modulators). Plasma samples were diluted to 20% (v/v) for CFTR immunoblotting.
Cells were lysed in RIPA buffer and protein concentration was measured by BCA assay and samples were stored at −80° C. or immediately analysed by Western blot. Western blots were performed using 7.5% gel. After gel transfer, the blot membrane was incubated for 1 h in 5% milk diluted in tris buffer saline with tween 0.1% (TBS-T) followed by incubation for 24 h with CFTR antibody as the primary antibody diluted 1:500 in TBS-T. The next day, the membrane was incubated for 2 h in donkey anti rabbit as the secondary antibody diluted 1:10000 in TBS-T.

[9] = Ivacaftor 2 mg/kg i.p. pre-treatment, S. pneumoniae infected mice, 48 h p.i., FACS

SMILES | transendothelial electrical resistance of HPMEC monolayer after pneumolysin stimulation [1] | endothelial calcium concentration ([Ca2+]i) after pneumolysin stimulation [2] | CFTR expression in HPMECs after pneumolysin stimulation (CFTR [3]) | survival rate in S. pneumoniae infected mice ([4]; Ivacaftor 2 mg/kg i.p. pre-treatment) | endogenous mouse serum albumin BALF/plasma ratio (protein leakage into the lung) ([4]; Ivacaftor 2 mg/kg i.p. pre-treatment from 24 h before infection, 48 h post infection with S. pneumoniae) | exogenous human serum albumin (HSA) BALF/plasma ratio (protein leakage into the lung) ([4]; Ivacaftor 2 mg/kg i.p. pre-treatment from 24 h before infection, HSA i.v. 1 h before BAL, 48 h post infection) | inflammatory macrophages in BALF [4, 9] | leukocytes in BALF [4, 9] | polymorphonuclear leukocytes (PMN) in BALF [4, 9] | CFTR expression in lungs of S. pneumoniae infected mice (CFTR [5]) | endogenous mouse serum albumin BALF/plasma ratio (protein leakage into the lung) ([6]; 48 h post infection with S. pneumoniae) | exogenous human serum albumin (HSA) BALF/plasma ratio (protein leakage into the lung) ([6]; HSA i.v. 1 h before BAL, 48 h post infection) | transendothelial electrical resistance of HPMECs after stimulation with plasma from COVID-19 patients [7] | CFTR expression in HPMECs after stimulation with plasma from COVID-19 patients (CFTR [8])
CC(C)(C)c1cc(C(C)(C)C)c(NC(=O)c2c[nH]c3ccccc3c2=O)cc1O [Ivacaftor, N-(5-hydroxy-2,4-ditert-butyl-phenyl)-4-oxo-1H-quinoline-3-carboxamide] | less reduced resistance | lesser increase | CFTR expression comparable to control cells | increased survival rate | reduced protein leakage into the lung | reduced protein leakage into the lung | decreased the levels of all three inflammatory cell subsets in the BALF | decreased the levels of all three inflammatory cell subsets in the BALF | decreased the levels of all three inflammatory cell subsets in the BALF | stabilized expression of CFTR | reduced protein leakage into the lung | reduced protein leakage into the lung | less reduced transendothelial electrical resistance | CFTR expression comparable to control cells
Cc1ccc(NC(=O)C2(c3ccc4c(c3)OC(F)(F)O4)CC2)nc1-c1cccc(C(=O)O)c1 [Lumacaftor, 3-[6-({[1-(2,2-difluoro-1,3-benzodioxol-5-yl)cyclopropyl]carbonyl}amino)-3-methylpyridin-2-yl]benzoic acid] | less reduced resistance |  |  |  |  |  |  |  |  |  |  |  | less reduced transendothelial electrical resistance | 
